Results published in publication PMC3433420 (PLoS ONE, 2012).
Residues, ends and D or L forms follow the SMILES beside them.

Legend:
SH2 and PTB domains [1] = target: T1, SH2 and PTB domains (Homo sapiens, UniProt O14796); experiment: In-house protein microarrays (with or without 5 mM DTT), protein named per line; type: binding; details: protein SH2D1B
T1 construct: thioredoxin; made in house; host or cells: BL21(DE3)pLysS E. coli
T1 sequence (O14796 1-132): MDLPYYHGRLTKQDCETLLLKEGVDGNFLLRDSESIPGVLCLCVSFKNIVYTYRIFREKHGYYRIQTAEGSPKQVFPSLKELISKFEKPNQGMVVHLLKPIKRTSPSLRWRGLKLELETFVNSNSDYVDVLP
Procedure, shortened: (§1)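 KD values come from rhodamine fluorescence of duplicate spots after subtraction of a thioredoxin control. Domains were printed at ~40 µM on aldehyde slides, blocked 1 h at room temperature in pH 7.8 HEPES/KCl buffer with 5 mM DTT and 1% BSA, then peptide-probed.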

SH2 and PTB domains [2] = target: T2, SH2 and PTB domains (Homo sapiens, UniProt O75159); experiment: as above; type: binding; details: protein SOCS5; PM assay replicate # 39337; array fabrication # 39329
T2 construct: thioredoxin; made in house; host or cells: BL21(DE3)pLysS E. coli
Procedure, shortened: as §1

SH2 and PTB domains [3] = target: T3, SH2 and PTB domains (Homo sapiens, UniProt Q63HR2); experiment: as above; type: binding; details: protein TENC1, array fabrication # 39329
T3 construct: thioredoxin; made in house; host or cells: BL21(DE3)pLysS E. coli
T3 sequence (Q63HR2 whole entry, the tested form may be a part): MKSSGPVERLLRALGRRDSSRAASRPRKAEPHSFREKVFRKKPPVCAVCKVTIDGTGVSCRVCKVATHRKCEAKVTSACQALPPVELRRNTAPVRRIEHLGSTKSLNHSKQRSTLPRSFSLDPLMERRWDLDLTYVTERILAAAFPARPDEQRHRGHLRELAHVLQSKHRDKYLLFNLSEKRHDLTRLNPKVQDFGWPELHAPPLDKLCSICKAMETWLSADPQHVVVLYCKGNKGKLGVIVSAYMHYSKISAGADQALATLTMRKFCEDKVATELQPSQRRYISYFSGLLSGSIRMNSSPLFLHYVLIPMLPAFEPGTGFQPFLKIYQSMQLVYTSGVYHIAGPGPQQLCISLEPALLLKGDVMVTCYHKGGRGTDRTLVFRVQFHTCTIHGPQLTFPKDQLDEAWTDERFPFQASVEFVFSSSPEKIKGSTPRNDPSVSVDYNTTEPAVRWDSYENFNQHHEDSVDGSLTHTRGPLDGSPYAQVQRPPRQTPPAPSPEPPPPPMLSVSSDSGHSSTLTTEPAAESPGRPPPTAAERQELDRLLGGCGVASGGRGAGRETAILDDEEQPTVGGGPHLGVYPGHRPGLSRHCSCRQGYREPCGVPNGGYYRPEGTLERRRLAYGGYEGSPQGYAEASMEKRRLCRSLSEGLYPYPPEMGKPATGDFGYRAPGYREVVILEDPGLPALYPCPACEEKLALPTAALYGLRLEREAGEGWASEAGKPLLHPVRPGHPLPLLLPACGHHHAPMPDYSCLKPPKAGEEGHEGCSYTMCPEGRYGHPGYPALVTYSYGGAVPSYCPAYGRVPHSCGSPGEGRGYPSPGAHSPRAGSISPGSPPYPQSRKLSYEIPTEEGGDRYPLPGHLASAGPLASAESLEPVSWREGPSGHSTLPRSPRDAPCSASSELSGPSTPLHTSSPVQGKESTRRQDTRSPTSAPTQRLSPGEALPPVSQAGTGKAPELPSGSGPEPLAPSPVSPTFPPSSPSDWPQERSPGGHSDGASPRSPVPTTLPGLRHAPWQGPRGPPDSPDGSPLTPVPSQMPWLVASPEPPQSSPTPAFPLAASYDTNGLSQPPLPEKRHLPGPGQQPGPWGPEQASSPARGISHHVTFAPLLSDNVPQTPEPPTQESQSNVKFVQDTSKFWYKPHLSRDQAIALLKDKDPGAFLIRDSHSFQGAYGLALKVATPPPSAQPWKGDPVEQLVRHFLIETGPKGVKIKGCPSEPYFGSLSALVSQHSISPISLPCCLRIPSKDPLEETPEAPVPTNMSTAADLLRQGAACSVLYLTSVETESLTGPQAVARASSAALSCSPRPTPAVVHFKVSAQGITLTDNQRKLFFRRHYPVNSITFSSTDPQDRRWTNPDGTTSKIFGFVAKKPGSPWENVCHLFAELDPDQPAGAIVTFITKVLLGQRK
Procedure, shortened: as §1

SH2 and PTB domains [4] = target: T4, SH2 and PTB domains (Homo sapiens, UniProt P06239); experiment: as above; type: binding; details: protein LCK
T4 construct: thioredoxin; made in house; host or cells: BL21(DE3)pLysS E. coli
T4 sequence (P06239 whole entry, the tested form may be a part): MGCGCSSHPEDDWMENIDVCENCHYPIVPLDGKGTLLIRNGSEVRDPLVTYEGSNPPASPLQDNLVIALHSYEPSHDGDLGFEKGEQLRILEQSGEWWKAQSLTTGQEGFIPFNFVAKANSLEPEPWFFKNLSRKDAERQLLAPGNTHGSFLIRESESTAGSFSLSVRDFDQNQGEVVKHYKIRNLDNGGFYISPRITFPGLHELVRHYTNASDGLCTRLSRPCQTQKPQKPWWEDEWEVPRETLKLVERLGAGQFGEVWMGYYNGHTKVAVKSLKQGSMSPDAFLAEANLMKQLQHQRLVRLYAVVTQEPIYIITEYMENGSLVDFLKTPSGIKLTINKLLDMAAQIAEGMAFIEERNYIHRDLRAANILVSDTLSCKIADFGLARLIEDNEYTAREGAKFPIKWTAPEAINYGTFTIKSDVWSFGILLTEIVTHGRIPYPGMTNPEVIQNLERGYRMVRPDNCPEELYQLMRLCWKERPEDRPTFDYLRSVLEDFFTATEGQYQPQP
Procedure, shortened: as §1

SH2 and PTB domains [5] = target: T5, SH2 and PTB domains (Homo sapiens, UniProt Q8N5H7); experiment: as above; type: binding; details: protein SH2D3C, array fabrication # 39329
T5 construct: thioredoxin; made in house; host or cells: BL21(DE3)pLysS E. coli
T5 sequence (Q8N5H7 whole entry, the tested form may be a part): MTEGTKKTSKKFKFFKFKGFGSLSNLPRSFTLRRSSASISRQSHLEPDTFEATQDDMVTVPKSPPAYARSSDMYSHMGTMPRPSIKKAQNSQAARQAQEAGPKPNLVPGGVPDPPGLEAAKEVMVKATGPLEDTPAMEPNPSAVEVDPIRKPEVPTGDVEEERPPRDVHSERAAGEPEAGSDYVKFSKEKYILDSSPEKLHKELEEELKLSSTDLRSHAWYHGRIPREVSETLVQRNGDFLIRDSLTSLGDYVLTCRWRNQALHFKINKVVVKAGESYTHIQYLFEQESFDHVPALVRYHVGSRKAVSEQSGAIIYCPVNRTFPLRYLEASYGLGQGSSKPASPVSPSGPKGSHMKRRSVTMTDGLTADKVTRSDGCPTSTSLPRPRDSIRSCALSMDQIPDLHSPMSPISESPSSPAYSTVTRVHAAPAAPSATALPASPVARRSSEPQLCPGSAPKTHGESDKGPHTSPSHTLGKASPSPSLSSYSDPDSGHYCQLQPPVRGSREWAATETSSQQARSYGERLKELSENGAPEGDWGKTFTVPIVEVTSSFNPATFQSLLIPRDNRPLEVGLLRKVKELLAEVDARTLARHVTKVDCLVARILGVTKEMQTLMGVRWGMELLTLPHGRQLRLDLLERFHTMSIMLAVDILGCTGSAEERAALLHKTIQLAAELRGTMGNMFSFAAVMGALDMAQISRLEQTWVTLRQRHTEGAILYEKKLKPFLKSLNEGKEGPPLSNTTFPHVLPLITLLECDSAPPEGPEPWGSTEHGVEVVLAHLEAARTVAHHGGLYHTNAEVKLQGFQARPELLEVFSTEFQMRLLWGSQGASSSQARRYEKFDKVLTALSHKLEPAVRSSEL
Procedure, shortened: as §1

SH2 and PTB domains [6] = target: T6, SH2 and PTB domains (Homo sapiens, UniProt P15498); experiment: as above; type: binding; details: protein VAV1, array fabrication # 39329
T6 construct: thioredoxin; made in house; host or cells: BL21(DE3)pLysS E. coli
T6 sequence (P15498 whole entry, the tested form may be a part): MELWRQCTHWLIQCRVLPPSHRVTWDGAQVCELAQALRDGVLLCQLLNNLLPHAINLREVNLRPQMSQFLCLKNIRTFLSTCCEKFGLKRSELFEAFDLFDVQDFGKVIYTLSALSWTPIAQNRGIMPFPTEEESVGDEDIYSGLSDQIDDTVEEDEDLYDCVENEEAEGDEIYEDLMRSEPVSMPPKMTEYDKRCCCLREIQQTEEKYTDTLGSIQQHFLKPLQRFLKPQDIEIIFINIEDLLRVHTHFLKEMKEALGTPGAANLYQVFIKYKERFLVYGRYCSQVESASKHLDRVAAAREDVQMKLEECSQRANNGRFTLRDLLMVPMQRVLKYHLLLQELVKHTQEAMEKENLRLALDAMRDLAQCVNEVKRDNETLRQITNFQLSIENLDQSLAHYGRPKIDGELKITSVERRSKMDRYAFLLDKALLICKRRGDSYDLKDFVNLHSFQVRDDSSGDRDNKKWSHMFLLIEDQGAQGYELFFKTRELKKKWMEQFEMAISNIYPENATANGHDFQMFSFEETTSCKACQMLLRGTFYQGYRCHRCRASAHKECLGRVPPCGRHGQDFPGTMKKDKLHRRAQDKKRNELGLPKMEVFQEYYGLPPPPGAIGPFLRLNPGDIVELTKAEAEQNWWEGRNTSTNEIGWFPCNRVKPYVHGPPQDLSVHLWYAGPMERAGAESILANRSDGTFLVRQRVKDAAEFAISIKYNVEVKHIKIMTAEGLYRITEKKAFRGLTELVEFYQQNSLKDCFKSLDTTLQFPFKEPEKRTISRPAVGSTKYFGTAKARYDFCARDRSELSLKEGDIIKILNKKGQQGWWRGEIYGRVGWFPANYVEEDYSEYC
Procedure, shortened: as §1

SH2 and PTB domains [7] = target: T7, SH2 and PTB domains (Homo sapiens, UniProt Q06124); experiment: as above; type: binding; details: protein PTPN11-NC, array fabrication # 39329
T7 construct: thioredoxin; made in house; host or cells: BL21(DE3)pLysS E. coli
T7 sequence (Q06124 whole entry, the tested form may be a part): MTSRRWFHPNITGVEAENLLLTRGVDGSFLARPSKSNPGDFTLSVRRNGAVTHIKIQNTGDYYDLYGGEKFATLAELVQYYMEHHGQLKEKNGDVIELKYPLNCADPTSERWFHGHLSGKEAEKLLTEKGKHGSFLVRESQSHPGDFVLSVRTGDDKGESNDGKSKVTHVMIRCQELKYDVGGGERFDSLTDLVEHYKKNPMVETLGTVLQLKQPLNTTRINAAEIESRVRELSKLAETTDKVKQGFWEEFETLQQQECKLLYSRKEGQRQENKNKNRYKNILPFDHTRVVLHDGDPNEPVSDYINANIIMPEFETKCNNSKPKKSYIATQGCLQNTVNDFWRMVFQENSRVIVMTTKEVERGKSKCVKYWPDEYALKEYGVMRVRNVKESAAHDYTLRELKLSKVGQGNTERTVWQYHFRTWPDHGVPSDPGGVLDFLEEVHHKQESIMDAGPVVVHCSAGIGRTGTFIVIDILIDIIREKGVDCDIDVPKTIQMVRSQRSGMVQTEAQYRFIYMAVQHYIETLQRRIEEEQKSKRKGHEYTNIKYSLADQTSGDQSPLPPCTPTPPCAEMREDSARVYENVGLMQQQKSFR
Procedure, shortened: as §1

SH2 and PTB domains [8] = target: T8, SH2 and PTB domains (Homo sapiens, UniProt O75815); experiment: as above; type: binding; details: protein BCAR3; PM assay replicate # 39337; array fabrication # 39329
T8 construct: thioredoxin; made in house; host or cells: BL21(DE3)pLysS E. coli
Procedure, shortened: as §1

VAV1 SH2 domain = VAV1 SH2 domain (Homo sapiens, UniProt P15498); experiment: FP saturation binding assay
VAV1 SH2 domain, sequence (P15498 671-765 limits assumed): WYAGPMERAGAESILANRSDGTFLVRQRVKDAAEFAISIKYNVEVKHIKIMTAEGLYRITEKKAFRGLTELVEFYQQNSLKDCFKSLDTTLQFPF

[9] = target: SYK-NC tandem SH2 domains (Homo sapiens, UniProt P43405); experiment: FP saturation binding assay
SH2 and PTB domains [10] = target: T9, SH2 and PTB domains (Homo sapiens, UniProt P46108); experiment: In-house protein microarrays (with or without 5 mM DTT), protein named per line; type: binding; details: protein CRK; PM assay replicate # 39307; array fabrication # 39286
T9 construct: thioredoxin; made in house; host or cells: BL21(DE3)pLysS E. coli
Procedure, shortened: as §1

SH2 and PTB domains [11] = target: T10, SH2 and PTB domains (Homo sapiens, UniProt Q8IZW8); experiment: as above; type: binding; details: protein TNS4; PM assay replicate # 39307; array fabrication # 39286
T10 construct: thioredoxin; made in house; host or cells: BL21(DE3)pLysS E. coli
Procedure, shortened: as §1

SH2 and PTB domains [12] = target: T11, SH2 and PTB domains (Homo sapiens, UniProt Q8WV28); experiment: as above; type: binding; details: protein BLNK; PM assay replicate # 39307; array fabrication # 39286
T11 construct: thioredoxin; made in house; host or cells: BL21(DE3)pLysS E. coli
Procedure, shortened: as §1

SH2 and PTB domains [13] = target: T12, SH2 and PTB domains (Homo sapiens, UniProt Q13322); experiment: as above; type: binding; details: protein GRB10; PM assay replicate # 39307; array fabrication # 39286
T12 construct: thioredoxin; made in house; host or cells: BL21(DE3)pLysS E. coli
T12 sequence (Q13322 whole entry, the tested form may be a part): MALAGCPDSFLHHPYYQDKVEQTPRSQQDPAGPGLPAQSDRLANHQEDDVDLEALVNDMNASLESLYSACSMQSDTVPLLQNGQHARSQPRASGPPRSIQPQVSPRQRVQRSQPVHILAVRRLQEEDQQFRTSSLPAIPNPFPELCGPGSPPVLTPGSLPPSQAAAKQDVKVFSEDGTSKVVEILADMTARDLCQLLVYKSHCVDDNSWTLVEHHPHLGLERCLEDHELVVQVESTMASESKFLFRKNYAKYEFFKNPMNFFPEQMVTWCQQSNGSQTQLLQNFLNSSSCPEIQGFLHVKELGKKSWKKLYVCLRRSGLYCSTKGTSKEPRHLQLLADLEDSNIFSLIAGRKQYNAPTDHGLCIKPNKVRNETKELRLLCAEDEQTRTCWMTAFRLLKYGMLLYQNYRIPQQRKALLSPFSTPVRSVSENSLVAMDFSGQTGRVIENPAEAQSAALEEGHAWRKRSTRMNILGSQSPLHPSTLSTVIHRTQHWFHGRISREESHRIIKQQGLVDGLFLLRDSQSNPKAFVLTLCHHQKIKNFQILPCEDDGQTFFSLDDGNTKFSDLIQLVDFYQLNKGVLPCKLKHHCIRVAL
Procedure, shortened: as §1

[14] = PM assay replicate # 39336, array fabrication # 39329
[15] = PM assay replicate # 39603, array fabrication # 39392

SMILES: CC(C)C[C@H](NC(=O)[C@@H]1CCCN1)C(=O)N[C@@H](CCC(N)=O)C(=O)N[C@@H](CCCNC(=N)N)C(=O)N[C@@H](Cc1ccc(OP(=O)(O)O)cc1)C(=O)N[C@@H](CO)C(=O)N[C@@H](CCC(=O)O)C(=O)N[C@@H](CC(=O)O)C(=O)N1CCC[C@H]1C(=O)N[C@H](C(=O)N[C@H](C(=O)N1CCC[C@H]1C(=O)N[C@@H](CC(=O)O)C(=O)O)C(C)C)[C@@H](C)O [ErbB2 pY1112] (HELM PEPTIDE1{P.L.Q.R.[O=C([C@H](Cc1ccc(OP(=O)(O)O)cc1)N[*:1])[*:2]].S.E.D.P.T.V.P.D}$$$$V2.0)
- Kd (SH2 and PTB domains [1]; PM assay replicate # 39331, array fabrication # 39329): 2.03 µM
- Kd (SH2 and PTB domains [1]; [14]): 5.39 µM
- Kd (SH2 and PTB domains [1]; [15]): 0.49 µM

SMILES: CC(C)C[C@H](NC(=O)[C@@H]1CCCN1C(=O)[C@H](C)NC(=O)[C@@H](NC(=O)[C@H](Cc1ccc(OP(=O)(O)O)cc1)NC(=O)CNC(=O)[C@H](CC(=O)O)NC(=O)[C@@H](NC(=O)[C@@H](N)CCC(=O)O)[C@@H](C)O)C(C)C)C(=O)N[C@H](C(=O)N[C@@H](CS)C(=O)N[C@@H](CO)C(=O)N[C@@H](CC(=O)O)C(=O)O)[C@@H](C)O [ErbB2 pY1127]
- Kd (SH2 and PTB domains [2]): 0.70 µM
- Kd (SH2 and PTB domains [3]; PM assay replicate # 39336): 32.59 µM
- Kd (SH2 and PTB domains [3]; PM assay replicate # 39337): 3.94 µM
- Kd (SH2 and PTB domains [4]; [14]): 0.80 µM
- Kd (SH2 and PTB domains [4]; PM assay replicate # 39337, array fabrication # 39329): 1.61 µM
- Kd (SH2 and PTB domains [4]; [15]): 0.13 µM
- Kd (SH2 and PTB domains [5]; PM assay replicate # 39336): 1.52 µM
- Kd (SH2 and PTB domains [5]; PM assay replicate # 39337): 5.51 µM
- Kd (SH2 and PTB domains [6]; PM assay replicate # 39336): 0.19 µM
- Kd (SH2 and PTB domains [6]; PM assay replicate # 39337): 0.09 µM
- Kd (SH2 and PTB domains [7]; PM assay replicate # 39336): 1.53 µM
- Kd (SH2 and PTB domains [7]; PM assay replicate # 39337): 1.15 µM
- Kd (SH2 and PTB domains [8]): 0.73 µM

SMILES: CSCC[C@H](NC(=O)[C@H](Cc1ccc(OP(=O)(O)O)cc1)NC(=O)CNC(=O)[C@H](CCC(=O)O)NC(=O)[C@H](CCC(=O)O)NC(=O)[C@H](CC(=O)O)NC(=O)[C@H](CC(C)C)NC(=O)[C@H](CCC(=O)O)NC(=O)CNC(=O)[C@H](CCCNC(=N)N)NC(=O)[C@@H]1CCCN1)C(=O)N[C@H](C(=O)N1CCC[C@H]1C(=O)N[C@@H](CCSC)C(=O)N[C@@H](CCCNC(=N)N)C(=O)N[C@@H](CC(=O)O)C(=O)N[C@@H](CCCCN)C(=O)N[C@@H](CC(=O)O)C(=O)O)[C@@H](C)O [ErbB4 1150 18-mer] (HELM PEPTIDE1{P.R.G.E.L.D.E.E.G.[O=C([C@H](Cc1ccc(OP(=O)(O)O)cc1)N[*:1])[*:2]].M.T.P.M.R.D.K.D}$$$$V2.0)
- Kd (VAV1 SH2 domain): 0.86 µM
- Kd [9]: 6.19 µM

SMILES: CC[C@H](C)[C@H](NC(=O)[C@H](CC(N)=O)NC(=O)[C@H](CC(N)=O)NC(=O)[C@H](CCCCN)NC(=O)[C@H](CC(C)C)NC(=O)[C@H](Cc1ccc(OP(=O)(O)O)cc1)NC(=O)[C@H](CCC(=O)O)NC(=O)[C@H](C)NC(=O)[C@H](CCCCN)NC(=O)CNC(=O)[C@H](CC(C)C)NC(=O)[C@@H](NC(=O)[C@H](CC(N)=O)NC(=O)[C@H](C)NC(=O)[C@@H](N)Cc1ccccc1)[C@@H](C)O)C(=O)N[C@@H](CC(C)C)C(=O)N[C@@H](CO)C(=O)N[C@@H](CC(=O)O)C(=O)O [ErbB4 pY1221 (18-mer)] (HELM PEPTIDE1{F.A.N.T.L.G.K.A.E.[O=C([C@H](Cc1ccc(OP(=O)(O)O)cc1)N[*:1])[*:2]].L.K.N.N.I.L.S.D}$$$$V2.0)
- Kd (SH2 and PTB domains [10]): 64.54 µM
- Kd (SH2 and PTB domains [11]): 0.32 µM
- Kd (SH2 and PTB domains [12]): 4.00 µM
- Kd (SH2 and PTB domains [13]): 0.23 µM
